Our source for the glass transition temperature values is the PolyMetriX glass transition set.

SMILES strings stand for the structures.

`*/C(=C(/*)c1ccc(Oc2ccccc2)cc1)c1ccccc1` (repeat unit) yielded a glass transition temperature of 200.00 °C.

Consider `*/C(=C(\[2H])C([2H])([2H])C(*)([2H])[2H])C([2H])([2H])[2H]` (repeat unit), for which the glass transition temperature was -58.00 °C. The molecule `*/C=C/c1ccc(N(c2ccc(/C=C/c3ccc4c5ccc(*)cc5n(CC(CC)CCCC)c4c3)cc2)c2ccc(OCC(CC)CCCC)cc2)cc1` (repeat unit) came in with a glass transition temperature of 132.00 °C. For `*C(=O)Nc1ccc(C2(c3ccc(NC(=O)c4ccc5c(c4)C(=O)N(c4ccc(-c6ccc(N7C(=O)c8ccc(*)cc8C7=O)c(OC)c6)cc4OC)C5=O)cc3)c3ccccc3-c3ccccc32)cc1` (repeat unit), the glass transition temperature is 181.00 °C.

`*C(=O)c1ccc2c(c1)C(=O)N(c1ccc(C3(C)CC(C)(C)c4ccc(N5C(=O)c6ccc(*)cc6C5=O)cc43)cc1)C2=O` (repeat unit) gave a glass transition temperature of 320.00 °C.

`*C(=O)c1ccc2c(c1)C(=O)N(c1ccc(N(c3ccc(C#N)cc3)c3ccc(N4C(=O)c5ccc(*)cc5C4=O)cc3)cc1)C2=O` (repeat unit) gave a glass transition temperature of 315.00 °C. For `*C(=O)c1ccc2c(c1)C(=O)N(c1ccc(Sc3ccc(N4C(=O)c5ccc(*)cc5C4=O)cn3)nc1)C2=O` (repeat unit), the glass transition temperature was determined as 246.00 °C. `*C(=O)c1ccc2c(c1)C(=O)N(c1cccc(C#Cc3cccc(N4C(=O)c5ccc(*)cc5C4=O)c3)c1)C2=O` (repeat unit) gave a glass transition temperature of 294.00 °C.

In turn, `*C(=O)c1ccc2c(c1)C(=O)N(c1cccc(C(c3cccc(N4C(=O)c5ccc(*)cc5C4=O)c3)(C(F)(F)F)C(F)(F)F)c1)C2=O` (repeat unit) came in with a glass transition temperature of 239.00 °C. In the case of `*CCCc1ccc(-c2c(-c3ccccc3)cc(-c3ccc(-c4cc(-c5ccccc5)c(-c5ccc(*)cc5)c(-c5ccccc5)c4-c4ccccc4)cc3)c(-c3ccccc3)c2-c2ccccc2)cc1` (repeat unit) it was 290.00 °C; in that of `*CCCc1ccc(-c2c(-c3ccccc3)cc(-c3cccc(-c4cc(-c5ccccc5)c(-c5ccc(*)cc5)c(-c5ccccc5)c4-c4ccccc4)c3)c(-c3ccccc3)c2-c2ccccc2)cc1` (repeat unit), 240.00 °C; in that of `*CNC(=O)OCC(OC(=O)NCc1ccc(C(C)(C)c2ccc(*)o2)o1)c1ccco1` (repeat unit), 20.00 °C. Molecule `*CNC(=O)OCCOC(=O)NCc1ccc(C(C)(C)c2ccc(*)o2)o1` (repeat unit) returned a glass transition temperature of 50.00 °C. The result for `*CNC(=O)OCc1ccc(COC(=O)NCc2ccc(C(C)(C)c3ccc(*)o3)o2)o1` (repeat unit) reads 55.00 °C; that for `*CNC(=O)OCc1cocc1COC(=O)NCc1ccc(C(C)(C)c2ccc(*)o2)o1` (repeat unit), 25.00 °C; that for `*Cc1ccc(C(C)(C)c2ccc(CN3C(=O)c4ccc(-c5ccc6c(c5)C(=O)N(*)C6=O)cc4C3=O)o2)o1` (repeat unit), 129.00 °C. The result for `*Cc1ccc(C(C)(C)c2ccc(CN3C(=O)c4ccc(C(c5ccc6c(c5)C(=O)N(*)C6=O)(C(F)(F)F)C(F)(F)F)cc4C3=O)o2)o1` (repeat unit) reads 134.00 °C. In turn, `*Cc1ccc(C(C)(CC)c2ccc(Cn3c(=O)c4cc5c(=O)n(*)c(=O)c5cc4c3=O)o2)o1` (repeat unit) yielded a glass transition temperature of 143.00 °C. The molecule `*Cc1ccc(C(C)(CCC)c2ccc(Cn3c(=O)c4cc5c(=O)n(*)c(=O)c5cc4c3=O)o2)o1` (repeat unit) had a glass transition temperature of 134.00 °C. In the case of `*Cc1ccc(C(C)c2ccc(Cn3c(=O)c4cc5c(=O)n(*)c(=O)c5cc4c3=O)o2)o1` (repeat unit) it was 116.00 °C; in that of `*OS(=O)(=O)c1cc(S(=O)(=O)Oc2ccc(C3(c4ccc(*)cc4)CCCCC3)cc2)ccc1C` (repeat unit), 142.00 °C. For the molecule `*c1ccc(-c2cc(-c3ccc(OCCCC#N)cc3)cc(-c3ccc(N4C(=O)c5ccc(Oc6ccc7c(c6)C(=O)N(*)C7=O)cc5C4=O)cc3)n2)cc1` (repeat unit), the glass transition temperature is 315.00 °C. In the case of `*c1ccc(-c2cc(C(C)(C)C)c(Oc3ccc(N4C(=O)c5ccc(Oc6ccc7c(c6)C(=O)N(*)C7=O)cc5C4=O)cc3C(F)(F)F)c(C(C)(C)C)c2)cc1` (repeat unit), the glass transition temperature was 353.00 °C.

In the case of `*c1ccc(-c2cc(C(C)(C)C)c(Oc3ccc(N4C(=O)c5ccc(S(=O)(=O)c6ccc7c(c6)C(=O)N(*)C7=O)cc5C4=O)cc3)c(C(C)(C)C)c2)cc1` (repeat unit), the glass transition temperature turned out to be 354.50 °C. With `*c1ccc(-c2cc(C(C)(C)C)c(Oc3ccc(N4C(=O)c5ccc(S(=O)(=O)c6ccc7c(c6)C(=O)N(*)C7=O)cc5C4=O)cc3C(F)(F)F)c(C(C)(C)C)c2)cc1` (repeat unit), the glass transition temperature is 365.50 °C. In turn, `*c1ccc(-c2ccc(N3C(=O)c4ccc(-c5ccc6c(c5)C(=O)N(*)C6=O)cc4C3=O)c(C)c2)cc1C` (repeat unit) came in with a glass transition temperature of 302.00 °C. Regarding `*c1ccc(C(*)C)cc1` (repeat unit), the glass transition temperature turned out to be 93.00 °C. In turn, `*c1ccc(C(C)(C)c2ccc(C(C)(C)c3ccc(N4C(=O)c5ccc(Oc6cccc7c(Oc8ccc9c(c8)C(=O)N(*)C9=O)cccc67)cc5C4=O)cc3)cc2)cc1` (repeat unit) had a glass transition temperature of 253.00 °C. `*c1ccc(C(C)(C)c2ccc(N3C(=O)c4ccc(Oc5ccc(Oc6ccc7c(c6)C(=O)N(*)C7=O)cc5)cc4C3=O)cc2)cc1` (repeat unit) showed a glass transition temperature of 264.00 °C.

`*c1ccc(C(C)(C)c2ccc(N3C(=O)c4ccc(Oc5ccc6ccc(Oc7ccc8c(c7)C(=O)N(*)C8=O)cc6c5)cc4C3=O)cc2)cc1` (repeat unit) had a glass transition temperature of 247.00 °C. `*c1ccc(C(C)(C)c2ccc(N3C(=O)c4ccc(Oc5cccc6c(Oc7ccc8c(c7)C(=O)N(*)C8=O)cccc56)cc4C3=O)cc2)cc1` (repeat unit) gave a glass transition temperature of 265.00 °C. The result for `*c1ccc(C(c2ccc(C#N)cc2)c2ccc(N(*)c3ccc(C)cc3)cc2)cc1` (repeat unit) reads 230.00 °C; that for `*c1ccc(C(c2ccc(C(=O)OC)cc2)c2ccc(N(*)c3ccc(C)cc3)cc2)cc1` (repeat unit), 222.00 °C.

Regarding `*c1ccc(C2(c3ccc(-c4cc(-c5ccccc5)c5cc(-c6ccc7nc(*)cc(-c8ccccc8)c7c6)ccc5n4)cc3)c3ccccc3-c3ccccc32)cc1` (repeat unit), the glass transition temperature was determined as 420.00 °C. In the case of `*c1ccc(CCc2ccc(N3C(=O)C(=O)N(c4ccc(CCc5ccccc5N5C(=O)C(=O)N(*)C5=O)cc4)C3=O)cc2)cc1` (repeat unit) it was 220.00 °C.

In the case of `*c1ccc(Cc2ccc(-n3nc(-c4ccccc4)cc3-c3ccc(-c4cc(-c5ccccc5)nn4*)cc3)cc2)cc1` (repeat unit), the glass transition temperature came to 252.00 °C. The result for `*c1ccc(Cc2ccc(N3C(=O)C4CCC5C(=O)N(*)C(=O)C5C4C3=O)cc2)cc1` (repeat unit) reads 341.00 °C; that for `*c1ccc(Cc2ccc(N3C(=O)N(c4ccc(Cc5ccc(N6C(=O)N(*)C(C)(C)C6=O)cc5)cc4)C(=O)C3(C)C)cc2)cc1` (repeat unit), 259.50 °C. In the case of `*c1ccc(Cc2ccc(N3C(=O)c4c(c(-c5ccccc5)c(-c5ccc(Oc6ccc(-c7c(-c8ccccc8)c8c(c(-c9ccccc9)c7-c7ccccc7)C(=O)N(*)C8=O)cc6)cc5)c(-c5ccccc5)c4-c4ccccc4)C3=O)cc2)cc1` (repeat unit), the glass transition temperature was found to be 356.00 °C.

As for `*c1ccc(Cc2ccc(N3C(=O)c4ccc(Oc5ccc(Oc6ccc7c(c6)C(=O)N(*)C7=O)cc5)cc4C3=O)c(C)c2C)c(C)c1C` (repeat unit), the glass transition temperature amounted to 277.00 °C. In the case of `*c1ccc(N(c2ccc(C#N)cc2)c2ccc(N3C(=O)c4ccc(Oc5ccc(C6(c7ccc(Oc8ccc9c(c8)C(=O)N(*)C9=O)cc7)c7ccccc7-c7ccccc76)cc5)cc4C3=O)cc2)cc1` (repeat unit) it was 279.00 °C.

`*c1ccc(OCCCCCCOc2ccc(C3C4C(=O)N(c5ccc(N6C(=O)C7ON(C)C(*)C7C6=O)cc5)C(=O)C4ON3C)cc2)cc1` (repeat unit) had a glass transition temperature of 52.00 °C. The result for `*c1ccc(Oc2ccc(-c3c(-c4ccccc4)c4c(c(-c5ccccc5)c3-c3ccccc3)C(=O)N(c3ccc(N5C(=O)c6c(c(-c7ccccc7)c(-c7ccccc7)c(*)c6-c6ccccc6)C5=O)cc3)C4=O)cc2)cc1` (repeat unit) reads 371.00 °C; that for `*c1ccc2c(c1)C(=O)N(c1ccc(-c3ccc(N4C(=O)c5ccc(C(*)(C(F)(F)F)C(F)(F)F)cc5C4=O)c(C)c3)cc1C)C2=O` (repeat unit), 352.00 °C; that for `*c1ccc2c(c1)C(=O)N(c1ccc(-c3ccc(N4C(=O)c5ccc(C(*)(C(F)(F)F)C(F)(F)F)cc5C4=O)c(OC(=O)/C=C/c4ccccc4)c3)cc1OC(=O)/C=C/c1ccccc1)C2=O` (repeat unit), 181.00 °C.

In turn, `*c1ccc2c(c1)C(=O)N(c1ccc(-c3ccc(N4C(=O)c5ccc(C(*)(C(F)(F)F)C(F)(F)F)cc5C4=O)c(OCCOc4ccc5c(C)cc(=O)oc5c4)c3)cc1OCCOc1ccc3c(C)cc(=O)oc3c1)C2=O` (repeat unit) came in with a glass transition temperature of 132.00 °C. As for `*c1ccc2c(c1)C(=O)N(c1ccc(C3(c4ccc(N5C(=O)c6ccc(C(*)(C(F)(F)F)C(F)(F)F)cc6C5=O)c(C(C)C)c4)c4ccccc4-c4ccccc43)cc1C(C)C)C2=O` (repeat unit), the glass transition temperature was determined as 299.00 °C. In the case of `*c1ccc2c(c1)C(=O)N(c1ccc(Oc3c(C(C)(C)C)cc(-c4ccc(N5C(=O)c6ccc(C(*)(C(F)(F)F)C(F)(F)F)cc6C5=O)cc4)cc3C(C)(C)C)c(C(F)(F)F)c1)C2=O` (repeat unit) it was 362.50 °C; in that of `*c1ccc2c(c1)C(=O)N(c1ccc(Oc3c(C(C)(C)C)cc(-c4ccc(N5C(=O)c6ccc(C(*)(C(F)(F)F)C(F)(F)F)cc6C5=O)cc4)cc3C(C)(C)C)cc1)C2=O` (repeat unit), 355.00 °C.
